# Assay results from patent US20150267174A1, “REPROGRAMMING PEPTIDE AND USE THEREOF” (priority 2012, published 2015).
# Square brackets hold non-standard residues; d marks the D form. Cysamide = C-terminal cysteamide
# Assays:
# Assay type in all cases: cell-based
# [1] = system: Human adult fibroblast strain TIG113; test: Spheroid formation after reverse transfection of peptide into fibroblasts; conditions: for spheroid formation ability (in words): reverse transfection, TIG113; for degree of spheroid formation: number of ES cell colony-like spheroids, peptide 30 μg/well solid-phased on 12 well plate, 2×10^4 cells seeded, measured 7-10 days later
# Description: Human adult fibroblast strain TIG113 was cultured in a medium mainly containing 10% fetal bovine serum-containing EMEM under humidified conditions at 37° C. and 5% CO2 until it reached 1×10^7 cells. A plate for reverse transfection was prepared by applying each peptide shown in Table 1 to each well of a 12 well plate at a concentration of 30 μg/well, and forming a solid phase by air-drying. Grown TIG113 was washed with CMF-PBS, and incubated in 0.25% trypsin solution at 37° C. for 10-15 min to dissociate the cells. Centrifugation and washing with PBS were repeated twice and the cells were suspended in iPS medium (manufactured by ReproCELL Incorporated). Using the cell suspension, human fibroblast was seeded at 2×10^4 cells on a plate for reverse transfection. As a reverse transfection medium, an iPS medium containing 10% fetal bovine serum and not containing bFGF was used. The number of ES colony-like spheroids formed was measured 7-10 days later, and the spheroid formation degree was evaluated (Table 1). In an experiment using the peptides of H11, H16, and H29, the ratio of the cells forming spheroid was calculated.
# [2] = system: human fibroblast (manufactured by KURABO INDUSTRIES LTD.); test: Spheroid formation and marker expression using human adult fibroblast
# From the text: Using a method similar to that of Example 1, H11 peptide was introduced into human fibroblast (manufactured by KURABO INDUSTRIES LTD.).
# The prepared spheroid was subjected to expression analysis of pluripotency marker and differentiation marker according to the method of Example 2. As a result, it was positive to pluripotency markers of alkaline phosphatase, SSEA-3, TRA-1-61, Oct3/4, Sox2, and Nanog. Furthermore, the expression of neural stem cell marker nestin, nerve marker neurofilament 160, βIII tubulin, MAP2, and GFAP was confirmed by continuous culture. Furthermore, the expression of insulin producing cell marker proinsulin, and C-peptide was also confirmed.
# [3] = system: Human adult fibroblast strain TIG113; test: CD105/CD146/CD31 antibody staining of spheroid cells
# Description: The pluripotent spheroid cell obtained in Example 1 by introducing a reprogramming peptide into a differentiated cell was examined for undifferentiation, and expressions of nerve marker and the like.
# Using the H11 peptide shown in Table 1, the cells were made to form spheroid according to the method shown in Example 1 and incubated using 1% H2O2-containing methanol at room temperature for 5 min, and immobilized.
# Using the antibody described in Table 3, cells were stained according to a package insert. As the secondary antibody, HRP-labeled goat anti-mouse IgG antibody (manufactured by Promega KK, Goat Anti-Mouse IgG (H+L), HRP Conjugate) was used.
# BHK21 = test: Spheroid formation and marker staining in various cells
# From the text: (§1) By a method similar to that of Example 1, H11 peptide was introduced into BHK21, A549, H293 cell, mouse feeder cell (COSMO BIO co., ltd.: RCHEFC003), bovine vascular endothelial cell (TOYOBO CO., LTD.: CAB300K05), and swine vascular endothelial cell (TOYOBO CO., LTD.: CAP300K05).
# [4] = system: bovine vascular endothelial cell; test: as above
# From the text: as §1
# A549 = test: as above
# From the text: as §1
# mouse feeder cell = test: as above
# From the text: as §1
# [5] = system: swine vascular endothelial cell; test: as above
# From the text: as §1
# H293 cell = test: as above
# From the text: as §1
# [6] = system: Human adult fibroblast strain TIG113; test: Marker expression (immunostaining, alkaline phosphatase staining) of spheroid cells
# Description: The pluripotent spheroid cell obtained in Example 1, by introducing a reprogramming peptide into differentiated cell, was examined for undifferentiation, expression of nerve marker and the like.
# Using the H11 peptide shown in Table 1, the cells were made to form spheroid according to the method shown in Example 1, and incubated in 1% H2O2 containingmethanol at room temperature for 5 min to immobilize the cells. The cells were washed five times with PBS, and blocked with PBS containing 5% FBS/0.05% gelatin/3% skim milk/1% BSA (hereinafter Block Ace) at room temperature for 1-2 hr. Furthermore, the cells were reacted at room temperature for 2 hr with the primary antibody shown in Table 2 and appropriately diluted with Block Ace. The cells were washed five times with PBS, and the HPR-labeled secondary antibody was appropriately diluted with Block Ace and reacted at room temperature for 1 hr. Lastly, the cells were washed five times with PBS, and the antigen was visualized according to the protocol of Peroxidase Stain DAB Kit &enhancer (Nacalai Tesque).
# For alkaline phosphatase staining, the cells immobilized by the aforementioned method were incubated at room temperature for 30 min using BCIP/NBT Color Development Substrate (Promega). The reaction was quenched by washing five times with PBS.
substance,measurement,setting,value
Ac-GALFLGFLGAAGSTMGA-Cysamide [H13],spheroid formation ability (in words),[1],no spheroid formation ability
Ac-GALFLGFLGAAGSTMGA/WSQ/KKRTLRKNDRKKR-Cysamide (Ac-GALFLGFLGAAGSTMGAWSQKKRTLRKNDRKKR-Cysamide) [H36],degree of spheroid formation,[1],+++ (+++ about 50-100)
Ac-GALFLGFLGAAGSTMGA/WSQ/RSRKYTSWYVALKR-Cysamide (Ac-GALFLGFLGAAGSTMGAWSQRSRKYTSWYVALKR-Cysamide) [H37],degree of spheroid formation,[1],+++ (+++ about 50-100)
Ac-GALFLGFLGAAGSTMGAWSQGKKRSKA-Cysamide [H29],degree of spheroid formation,[1],+++ (+++ about 50-100)
same,spheroid formation ability (in words),[1],has spheroid formation ability
Ac-GALFLGFLGAAGSTMGAWSQPKKKRKV-Cysamide [H11],degree of spheroid formation,[1],+++ (+++ about 50-100)
same,expression of alpha-fetoprotein and albumin,[2],confirmed
same,expression of proinsulin and C-peptide,[2],confirmed
same,oil red O staining,[2],differentiation into adipose tissue was found
same,"expression of nestin, neurofilament 160, βIII tubulin, MAP2, GFAP",[2]; continuous culture,confirmed
same,spheroid formation,[2]; human fibroblast (KURABO),finally formed spheroid
same,"pluripotency markers alkaline phosphatase, SSEA-3, TRA-1-61, Oct3/4, Sox2, Nanog",[2]; prepared spheroid,positive
same,mesenchymal stem cell marker CD105,[3],positive
same,pericyte marker CD146,[3],positive
same,vascular endothelial cell marker CD31,[3],negative
same,"alkaline phosphatase, SSEA-3 staining",BHK21,positive
same,spheroid formation,BHK21,formed spheroids
same,"alkaline phosphatase, SSEA-3 staining",[4],positive
same,spheroid formation,[4],formed spheroids
same,"alkaline phosphatase, SSEA-3 staining",A549,positive
same,spheroid formation,A549,formed spheroids
same,"alkaline phosphatase, SSEA-3 staining",mouse feeder cell,positive
same,spheroid formation,mouse feeder cell,formed spheroids
same,"alkaline phosphatase, SSEA-3 staining",[5],positive
same,spheroid formation,[5],formed spheroids
same,"alkaline phosphatase, SSEA-3 staining",H293 cell,positive
same,spheroid formation,H293 cell,formed spheroids
same,"expression of pluripotent markers alkaline phosphatase, Oct3/4, Sox2, Nanog, SSEA-3, Tra-1-81",[6]; spheroid cells from TIG113,express
same,expression of proinsulin and C-peptide (insulin producing cell markers),[6]; spheroid cells from TIG113,confirmed
same,"expression of nestin, neurofilament 160, βIII tubulin, MAP2, GFAP",[6]; when the culture period becomes long,confirmed
Ac-GALFLGFLGAAGSTMGAWSQPKSKRKV-Cysamide [H6],degree of spheroid formation,[1],+ (+ about −10)
Ac-GALFLGFLGAAGSTMGAmSQPKSKRKV-Cysamide (Ac-GALFLGFLGAAGSTMGA[dM]SQPKSKRKV-Cysamide) [H10],degree of spheroid formation,[1],+ (+ about −10)
"Ac-PKKKRKV-Cysamide [H18, SV40 Large T antigen NLS]",spheroid formation ability (in words),[1],Spheroid is not formed
Ac-RQIKIWFQNRRMKWKKWSQGKKRSKA-Cysamide [H31],degree of spheroid formation,[1],+ (+ about −10)
GALFLGFLGAAGSTMGAWSQPKSKRKV (Reprogramming peptide) [H1],degree of spheroid formation,[1],++ (++ about 10-50)
GALFLGFLGAAGSTMGAmSQPKSKRKV (GALFLGFLGAAGSTMGAMSQPKSKRKV; not fully specified; D-Met; Reprogramming peptide) [H5],degree of spheroid formation,[1],+ (+ about −10)
